# According to patent publication US4507287A, “Preparation and method for the treatment of acne” (priority 1983, dated 1985):
# Where two headings read alike, the source gives them in different places.
# Key:
# [1] = tested on: normal skin; settings: in vivo
# Procedure: This rash, however, usually disappears shortly thereafter with no ill effects. Annals of the New York Academy of Sciences, Vol. […], (1967). S. W. Jacob, E. E. Rosenbaum, and D. C. Wood, eds., Vol. 1, Dimethyl Sulfoxide, 99 (1971), and Vol. 243, Annals of the New York Academy of Sciences, (1975). In the present invention DMSO is diluted to 70% with demineralized water before ara-A is added.
# [2] = animals and humans; cited from earlier work
# [3] = tested on: normal skin; settings: applied to skin; cited from earlier work
# [4] = tested on: acne; test: topical treatment of acne with antibiotics mixed with DMSO; type: in vivo; settings: antibiotic mixed with DMSO
# Description: These antibiotics including, amikacin, cefamandole, cefoxitin, erythromycin, tetracycline, tobramycin, vancomycin, lincomycin, and carbenicillin.
# [5] = intravenous form; cited from earlier work
# [6] = tested on: DNA polymerase; settings: suppresses viral replication; cited from earlier work
# [7] = solubility of ara-A in DMSO/water versus water; type: physicochemical; settings: DMSO in the solvent carrier medium
# [8] = tested on: rats; test: acute oral toxicity of ara-A in rats; type: in vivo; settings: extrapolated from LD50 in rats and mice
# Procedure: Regarding toxicity or other side effects on the patient of the proposed preparation, extensive pharmacologic and toxicity studies on ara-A have been carried out in animals and in man. […] This dose level indicates a low order of toxicity to a single parenteral dose. The acute oral LD50 in both rats and mice is greater than […]. This amount would be equivalent to more than […] (one and two thirds pound) in an average 150 pound person. […] In the form used in the present invention and with treatment by topical application, it is highly unlikely that any toxic side effects of ara-A would be observed.
# [9] = recovery of unchanged ara-A from the DMSO and water solution; type: physicochemical; settings: under the conditions of preparation
# Procedure: There are no special procedures involved in preparing of the preparation for the treatment of acne of the present invention. The demineralized water and DMSO can be mixed first, and the ara-A (and benzocaine if used) is then dissolved in the DMSO and water solution. The ara-A can be added to the pure DMSO, and water can be added last. When water and DMSO are mixed, the solution becomes warm because there is a positive heat of solution. […] Ara-A can be recovered from the DMSO and water solution virtually 100% as unchanged ara-A.
# [10] = cited from earlier work
# [11] = tested on: DNA viruses; settings: in vitro and in vivo (animal models or man), cited from earlier work
# [12] = in vivo
# Description: Also one to two percent high viscosity carboxymethylcellulose, Carbopol (manufactured by Firestone Company, Akron, Ohio), or other suitable gelling agent might be added to the mixture to provide a gel which may be preferred for topical application.
# [13] = tested on: acne lesions; test: topical treatment of acne with ara-A and DMSO; type: in vivo; settings: benzocaine added to ara-A/DMSO medication
# Description: Treatment of acne with the disclosed preparation should begin as soon as the first sign of the lesion (pimple) is apparent. […] The medication should be applied every two to four hours for the first two days during waking hours.
# [14] = tested on: acne; settings: oral, long-term; Plewig et al.; cited from earlier work
compound,measurement,setting,value
"C[S+](C)[O-] [DMSO, dimethyl sulfoxide]",skin irritation at 70% DMSO,[1],usually non-irritating to normal skin
same,toxicity,[2],essentially nontoxic
same,skin reaction to undiluted DMSO,[3],sometimes may cause an itching or burning sensation with redness or rash
NCC[C@H](O)C(=O)N[C@@H]1C[C@H](N)[C@@H](O[C@H]2O[C@H](CN)[C@@H](O)[C@H](O)[C@H]2O)[C@H](O)[C@H]1O[C@H]1O[C@H](CO)[C@@H](O)[C@H](N)[C@H]1O [amikacin],effectiveness in topical treatment of acne,[4],effective in the topical treatment of acne
"Nc1ncnc2c1ncn2[C@@H]1O[C@H](CO)[C@@H](O)[C@@H]1O [ara-A, adenine-9- -D-arabinofuranoside]",side effects of massive acute overdosage,[5],without any serious side effects
same,inhibition of DNA polymerase,[6],inhibits the enzyme DNA polymerase
same,amount of ara-A dissolved versus DMSO concentration,[7],"The higher the concentration of DMSO in the solvent carrier medium, the greater is the amount of ara-A that can be dissolved"
same,amount equivalent to the acute oral LD50 in an average 150 pound person,[8],more than 750 grams
same,chemical reaction between ara-A and DMSO,[9],no chemical reaction
same,toxicity through topical application,[10],not possible to demonstrate toxicity
same,redness and irritation after topical application,[10]; in some cases,redness and slight irritation has been noted
same,antiviral activity,[11],active against a broad spectrum of DNA viruses
same,antiviral activity,[11]; listed as Ara-A,in some cases to be effective against Herpes simplex virus
CCOC(=O)c1ccc(N)cc1 [benzocaine],deleterious effect on the patient,[12],Nor does the benzocaine appear to have any deleterious effect on the patient
same,influence of benzocaine on effectiveness of the medication,[13],does not impair the effectiveness of the medication
CC1(C)S[C@@H]2[C@H](NC(=O)C(C(=O)O)c3ccccc3)C(=O)N2[C@H]1C(=O)O (some centres unmarked) [carbenicillin],effectiveness in topical treatment of acne,[4],effective in the topical treatment of acne
Cn1nnnc1SCC1=C(C(=O)O)N2C(=O)[C@@H](NC(=O)[C@H](O)c3ccccc3)[C@H]2SC1 [cefamandole],effectiveness in topical treatment of acne,[4],effective in the topical treatment of acne
CO[C@@]1(NC(=O)Cc2cccs2)C(=O)N2C(C(=O)O)=C(COC(N)=O)CS[C@@H]21 [cefoxitin],effectiveness in topical treatment of acne,[4],effective in the topical treatment of acne
CC[C@H]1OC(=O)[C@H](C)[C@@H](O[C@H]2C[C@@](C)(OC)[C@@H](O)[C@H](C)O2)[C@H](C)[C@@H](O[C@@H]2O[C@H](C)C[C@H](N(C)C)[C@H]2O)[C@](C)(O)C[C@@H](C)C(=O)[C@H](C)[C@@H](O)[C@]1(C)O [erythromycin],effectiveness in topical treatment of acne,[4],effective in the topical treatment of acne
same,help in the management of acne,[14],help in the management of acne
CCC[C@@H]1C[C@@H](C(=O)N[C@@H]([C@H]2O[C@H](SC)[C@H](O)[C@@H](O)[C@H]2O)[C@@H](C)O)N(C)C1 [lincomycin],effectiveness in topical treatment of acne,[4],effective in the topical treatment of acne
same,help in the management of acne,[14],help in the management of acne
CN(C)C1C(=O)C(C(N)=O)=C(O)C2(O)C(=O)C3=C(O)c4c(O)cccc4C(C)(O)C3CC12 (centres unmarked) [tetracycline],effectiveness in topical treatment of acne,[4],effective in the topical treatment of acne
same,help in the management of acne,[14],help in the management of acne
NC[C@H]1O[C@H](O[C@H]2[C@H](O)[C@@H](O[C@H]3O[C@H](CO)[C@@H](O)[C@H](N)[C@H]3O)[C@H](N)C[C@@H]2N)[C@H](N)C[C@@H]1O [tobramycin],effectiveness in topical treatment of acne,[4],effective in the topical treatment of acne
CN[C@H](CC(C)C)C(=O)N[C@H]1C(=O)N[C@@H](CC(N)=O)C(=O)N[C@H]2C(=O)N[C@H]3C(=O)N[C@H](C(=O)N[C@H](C(=O)O)c4cc(O)cc(O)c4-c4cc3ccc4O)[C@H](O)c3ccc(c(Cl)c3)Oc3cc2cc(c3O[C@@H]2O[C@H](CO)[C@@H](O)[C@H](O)[C@H]2O[C@H]2C[C@](C)(N)[C@H](O)[C@H](C)O2)Oc2ccc(cc2Cl)[C@H]1O [vancomycin],effectiveness in topical treatment of acne,[4],effective in the topical treatment of acne
